US20160362416A1, “ANTIVIRAL COMPOUNDS” (Gilead Sciences, Inc., priority 2012, published 2016)

Assays:
[1] = test system: L31V/Y93H in genotype 1b NS5A replicon; assay: Resistance mutant replicon assay, genotype 1b NS5A L31V/Y93H; type: cell-based, HCV; conditions: Hepatitis C virus, read-out: 1b L31V/Y93H (nM)
Summary of the method: (§1)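 Transiently transfected Huh-7-derived cured-51 cells carrying site-directed NS5A mutant Pi-RLuc replicons are exposed to compound for 72 h. Luciferase output is fitted by non-linear regression to give EC50.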

[2] = test system: Y93N in genotype 1a NS5A replicon; assay: Resistance mutant replicon assay, genotype 1a NS5A Y93N; type: cell-based, HCV; conditions: Hepatitis C virus, read-out: 1a Y93N (nM)
Summary of the method: as §1

[3] = test system: NS5A chimeric genotype 2a JFH-1 replicon with genotype 2b MD2b-1 strain NS5A gene (M31); assay: HCV genotype 2b NS5A chimeric replicon assay, stable (s); type: cell-based; conditions: Hepatitis C virus, 72 h, read-out: 2b (s) (nM)
[4] = test system: stable HCV 1a RLuc replicon cells (genotype 1a H77 replicon); assay: HCV genotype 1a RLuc replicon reporter assay; type: cell-based; conditions: Hepatitis C virus; stable genotype 1a H77 RLuc replicon cells, 72 hours
[5] = test system: stable HCV 1b RLuc replicon cells (genotype 1b Con1 replicon); assay: HCV genotype 1b RLuc replicon reporter assay; type: cell-based; conditions: Hepatitis C virus; stable genotype 1b Con1 RLuc replicon cells, 72 hours
Summary of the method: (§2)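 Stable 1b Con1 RLuc replicon cells, or Huh-Lunet cells transiently transfected with chimeric replicons (Con1 backbone carrying 3a S52 or 4a ED43 NS5A; JFH-1 backbone carrying 2b MD2b-1 NS5A, M31), treated with 3-fold dilutions for 72 h. Renilla luciferase read after lysis; EC50 by non-linear regression.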

[6] = test system: NS5A chimeric genotype 1b Con1 replicon with genotype 4a ED43 strain NS5A gene; assay: HCV genotype 4a NS5A chimeric replicon assay; type: cell-based; conditions: Hepatitis C virus, 72 h, read-out: 4a (s) (nM)
[7] = test system: NS5A chimeric genotype 2a JFH-1 replicon with genotype 2a J6 strain NS5A gene (M31); assay: HCV genotype 2a J6 NS5A chimeric replicon assay, transient (t); type: cell-based; conditions: Hepatitis C virus, 72 h, read-out: 2a J6 (t) (nM)
[8] = test system: Y93H in genotype 1a NS5A replicon; assay: Resistance mutant replicon assay, genotype 1a NS5A Y93H; type: cell-based, HCV; conditions: Hepatitis C virus, read-out: 1a Y93H (nM)
Summary of the method: as §1

[9] = test system: NS5A chimeric genotype 2a JFH-1 replicon with genotype 2b MD2b-1 strain NS5A gene (M31); assay: HCV genotype 2b NS5A chimeric replicon assay, transient (t); type: cell-based; conditions: Hepatitis C virus, 72 h, read-out: 2b (t) (nM)
Summary of the method: as §2

[10] = test system: stable HCV 2a JFH-1 Rluc replicon cells (L31 present in NS5A); assay: HCV genotype 2a JFH-1 RLuc replicon reporter assay; type: cell-based; conditions: Hepatitis C virus, 72 h, read-out: 2a JFH (nM)
[11] = test system: NS5A chimeric genotype 1b Con1 replicon with genotype 3a S52 strain NS5A gene; assay: HCV genotype 3a NS5A chimeric replicon assay; type: cell-based; conditions: Hepatitis C virus, 72 h, read-out: 3a (nM)
Summary of the method: as §2

| Compound | EC50 [1] | EC50 [2] | EC50 [3] | EC50 [4] | EC50 [5] | EC50 [6] | EC50 [7] | EC50 [8] | EC50 [9] | EC50 [10] | EC50 [11] |
| --- | --- | --- | --- | --- | --- | --- | --- | --- | --- | --- | --- |
| COC(=O)N[C@H](C(=O)N1[C@@H](C)CC[C@H]1c1ncc(-c2ccc3c(c2)COc2cc4c(ccc5nc([C@@H]6CC[C@H](C)N6C(=O)[C@@H](NC(=O)OC)C6CC(C)O[C@H](C)C6)[nH]c54)cc2-3)[nH]1)C(C)C (stereo in doubt) [Example AQ, Methyl {(2S)-1-[(2S,5S)-2-(5-{2-[(2S,5S)-1-{(2S)-2-[(2R,6R)-2,6-dimethyltetrahydro-2H-pyran-4-yl]-2-[(methoxycarbonyl)amino]acetyl}-5-methylpyrrolidin-2-yl]-1,11-dihydroisochromeno[4′,3′:6,7]naphtho[1,2-d]imidazol-9-yl}-1H-imidazol-2-yl)-5-methylpyrrolidin-1-yl]-3-methyl-1-oxobutan-2-yl}carbamate] | 0.908 nM | 0.337 nM | 0.032 nM | 0.019 nM | 0.029 nM | 0.012 nM | 0.011 nM | 0.206 nM | 0.016 nM | 0.016 nM | 0.017 nM |
| CC[C@H]1CC[C@@H](c2nc3ccc4cc5c(cc4c3[nH]2)OCc2cc(-c3cnc([C@@H]4CC[C@H](C)N4C(=O)[C@@H](NC(=O)OC)C(C)C)[nH]3)ccc2-5)N1C(=O)[C@@H](NC(=O)OC)C1CCOCC1 [Comp 3, reference compound] |  |  | 0.095 nM | 0.021 nM | 0.026 nM | 0.014 nM | 0.061 nM | 2.54 nM |  | 0.019 nM | 0.065 nM |
| CC[C@H](C)[C@H](NC(=O)OC)C(=O)N1[C@@H](C)CC[C@H]1c1ncc(-c2ccc3c(c2)COc2cc4c(ccc5nc([C@@H]6CC[C@H](C)N6C(=O)[C@@H](NC(=O)OC)C6CCOCC6)[nH]c54)cc2-3)[nH]1 [Comp 4, reference compound] |  | 1.06 nM | 0.074 nM | 0.023 nM | 0.028 nM | 0.021 nM | 0.026 nM | 0.978 nM |  | 0.018 nM | 0.043 nM |
| CC[C@H](C)[C@H](NC(=O)OC)C(=O)N1[C@@H](C)CC[C@H]1c1nc2ccc3cc4c(cc3c2[nH]1)OCc1cc(-c2cnc([C@@H]3CC[C@H](C)N3C(=O)[C@@H](NC(=O)OC)C3CCOCC3)[nH]2)ccc1-4 [Comp 12, reference compound] | 0.097 nM | 1.38 nM | 0.07 nM | 0.013 nM | 0.022 nM | 17.7 nM | 0.032 nM | 1.24 nM |  | 0.009 nM | 0.026 nM |
| CC[C@H](C)[C@H](NC(=O)OC)C(=O)N1[C@@H](C)CC[C@H]1c1ncc(-c2ccc3c(c2)COc2cc4c(ccc5nc([C@@H]6CC[C@H](C)N6C(=O)[C@@H](NC(=O)OC)C6C[C@@H](C)O[C@H](C)C6)[nH]c54)cc2-3)[nH]1 (stereo partly drawn) [Example AA, Methyl {(2S,3S)-1-[(2S,5S)-2-(5-{2-[(2S,5S)-1-{(2S)-2-[(2R,6R)-2,6-dimethyltetrahydro-2H-pyran-4-yl]-2-[(methoxycarbonyl)amino]acetyl}-5-methylpyrrolidin-2-yl]-1,11-dihydroisochromeno[4′,3′:6,7]naphtho[1,2-d]imidazol-9-yl}-1H-imidazol-2-yl)-5-methylpyrrolidin-1-yl]-3-methyl-1-oxopentan-2-yl}carbamate] | 0.498 nM | 0.57 nM | 0.029 nM | 0.016 nM | 0.017 nM | 0.008 nM | 0.006 nM | 0.322 nM | 0.014 nM | 0.011 nM | 0.014 nM |
| COC(=O)N[C@H](C(=O)N1[C@@H](C)CC[C@H]1c1ncc(-c2ccc3c(c2)COc2cc4c(ccc5nc([C@@H]6CC[C@H](C)N6C(=O)[C@@H](NC(=O)OC)[C@H]6C[C@@H](C)O[C@@H](C)C6)[nH]c54)cc2-3)[nH]1)C(C)C [Example AM, Methyl {(2S)-1-[(2S,5S)-2-(5-{2-[(2S,5S)-1-{(2S)-2-[(2R,6S)-2,6-dimethyltetrahydro-2H-pyran-4-yl]-2-[(methoxycarbonyl)amino]acetyl}-5-methylpyrrolidin-2-yl]-1,11-dihydroisochromeno[4′,3′:6,7]naphtho[1,2-d]imidazol-9-yl}-1H-imidazol-2-yl)-5-methylpyrrolidin-1-yl]-3-methyl-1-oxobutan-2-yl}carbamate] | 11.6 nM | 4.65 nM | 0.023 nM | 0.009 nM | 0.014 nM | 0.01 nM | 0.008 nM |  | 0.008 nM | 0.005 nM | 0.011 nM |
| COC(=O)N[C@H](C(=O)N1[C@@H](C)CC[C@H]1c1nc2ccc3cc4c(cc3c2[nH]1)OCc1cc(-c2cnc([C@@H]3CC[C@H](C)N3C(=O)[C@@H](NC(=O)OC)[C@H]3C[C@@H](C)O[C@@H](C)C3)[nH]2)ccc1-4)C(C)C [Example AO, Methyl {(2S)-1-[(2S,5S)-2-(9-{2-[(2S,5S)-1-{(2S)-2-[(2R,6S)-2,6-dimethyltetrahydro-2H-pyran-4-yl]-2-[(methoxycarbonyl)amino]acetyl}-5-methylpyrrolidin-2-yl]-1H-imidazol-5-yl}-1,11-dihydroisochromeno[4′,3′:6,7]naphtho[1,2-d]imidazol-2-yl)-5-methylpyrrolidin-1-yl]-3-methyl-1-oxobutan-2-yl}carbamate] | 17.5 nM | 9.03 nM | 0.045 nM | 0.012 nM | 0.015 nM | 0.018 nM | 0.017 nM |  | 0.015 nM | 0.008 nM | 0.021 nM |
| COC(=O)N[C@H](C(=O)N1[C@@H](C)CC[C@H]1c1nc2ccc3cc4c(cc3c2[nH]1)OCc1cc(-c2cnc([C@@H]3CC[C@H](C)N3C(=O)[C@@H](NC(=O)OC)C3C[C@@H](C)O[C@H](C)C3)[nH]2)ccc1-4)C(C)C (stereo partly shown) [Example AS] | 2.03 nM | 0.325 nM | 0.064 nM | 0.026 nM | 0.045 nM | 0.024 nM | 0.015 nM | 0.148 nM | 0.026 nM | 0.028 nM | 0.051 nM |
| COC(=O)N[C@H](C(=O)N1[C@@H](C)CC[C@H]1c1ncc(-c2ccc3c(c2)COc2cc4c(ccc5nc([C@@H]6CC[C@H](C)N6C(=O)[C@@H](NC(=O)OC)C6C[C@@H](C)O[C@H](C)C6)[nH]c54)cc2-3)[nH]1)C1C[C@@H](C)O[C@H](C)C1 (stereo partly drawn) [Example AU, Methyl {(1S)-1-[(2R,6R)-2,6-dimethyltetrahydro-2H-pyran-4-yl]-2-[(2S,5S)-2-(5-{2-[(2S,5S)-1-{(2S)-2-[(2R,6R)-2,6-dimethyltetrahydro-2H-pyran-4-yl]-2-[(methoxycarbonyl)amino]acetyl}-5-methylpyrrolidin-2-yl]-1,11-dihydroisochromeno[4′,3′:6,7]naphtho[1,2-d]imidazol-9-yl}-1H-imidazol-2-yl)-5-methylpyrrolidin-1-yl]-2-oxoethyl}carbamate] | 0.059 nM | 0.089 nM | 0.023 nM | 0.029 nM | 0.039 nM | 0.017 nM | 0.008 nM | 0.026 nM | 0.017 nM | 0.013 nM | 0.029 nM |
| COC[C@H]1C[C@@H](c2ncc(-c3ccc4c(c3)COc3cc5c(ccc6nc([C@@H]7CC[C@H](C)N7C(=O)[C@@H](NC(=O)OC)C7C[C@@H](C)O[C@H](C)C7)[nH]c65)cc3-4)[nH]2)N(C(=O)[C@@H](NC(=O)OC)C2C[C@@H](C)O[C@H](C)C2)C1 (stereo partly drawn) [Example BH, Methyl {(1S)-1-[(2R,6R)-2,6-dimethyltetrahydro-2H-pyran-4-yl]-2-[(2S,5S)-2-(9-{2-[(2S,4S)-1-{(2S)-2-[(2R,6R)-2,6-dimethyltetrahydro-2H-pyran-4-yl]-2-[(methoxycarbonyl)amino]acetyl}-4-(methoxymethyl)pyrrolidin-2-yl]-1H-imidazol-5-yl}-1,11-dihydroisochromeno[4′,3′:6,7]naphtho[1,2-d]imidazol-2-yl)-5-methylpyrrolidin-1-yl]-2-oxoethyl}carbamate] |  | 0.082 nM | 0.027 nM | 0.053 nM | 0.118 nM | 0.024 nM | 0.055 nM | 0.04 nM |  | 0.013 nM | 0.056 nM |
